From US20130023555A1, “KINASE INHIBITOR WITH IMPROVED SOLUBILITY PROFILE” (Abbott Laboratories, priority 2011, published 2013)

Target: T1, FLT1 (Homo sapiens, UniProt P17948)
T1 construct: His6
T1 sequence (P17948 786-1338 limits assumed): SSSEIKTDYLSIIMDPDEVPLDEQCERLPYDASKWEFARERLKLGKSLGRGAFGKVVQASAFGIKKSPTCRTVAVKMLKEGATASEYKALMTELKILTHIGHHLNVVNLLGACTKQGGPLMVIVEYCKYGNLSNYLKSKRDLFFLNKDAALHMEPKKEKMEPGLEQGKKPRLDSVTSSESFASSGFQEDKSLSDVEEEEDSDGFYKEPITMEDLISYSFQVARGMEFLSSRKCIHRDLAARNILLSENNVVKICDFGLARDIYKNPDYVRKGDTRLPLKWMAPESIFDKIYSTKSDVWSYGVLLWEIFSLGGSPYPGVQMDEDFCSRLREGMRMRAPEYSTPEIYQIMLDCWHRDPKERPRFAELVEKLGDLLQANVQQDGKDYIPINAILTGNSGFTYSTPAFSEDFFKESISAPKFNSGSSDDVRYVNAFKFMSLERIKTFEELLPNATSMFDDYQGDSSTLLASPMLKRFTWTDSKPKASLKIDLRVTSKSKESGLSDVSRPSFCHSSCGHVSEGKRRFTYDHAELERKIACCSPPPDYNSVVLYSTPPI
Assay: HTRF in vitro kinase assay, FLT1
Assay type: biochemical
Settings: 1 mM ATP
Procedure: To determine the activity of the various kinases, a homogenous time-resolved fluorescence (HTRF) in vitro kinase assay was used. (Mathis, G., HTRF(R) Technology. J Biomol Screen, 1999. 4(6): p. 309-314; Alfred J. Kolb, Paul V. Kaplita, David J. Hayes, Young-Whan Park, Christine Pernell, John S. Major and Gerard Mathis, Drug Discovery Today, 1998, 3, 333-342.)
For example for KDR, cKIT, FLT1, CSF1R and FTL3, purified enzyme was mixed with 0.5 μM N-biotinylated substrate (Biotin-Ahx-[…]-amide (SEQ. ID. 1)), various concentrations of inhibitor in reaction buffer (50 mM HEPES, pH 7.1, 10 mM MgCl2, 2 mM MnCl2, 0.1% BSA and 1 mM DTT, 40 μL final volume), ATP (1 mM final conc.) in a black 384-well plate. […] The quenched reaction was allowed to stand at room temperature for 3 hours and was then read in a time-resolved fluorescence detector (InVision, Perkin-Elmer) at 620 nm and 665 nm sequentially with excitation. The ratio between the signal of 620 nm and 665 nm was used in the calculation of the IC50.

IC50: 2 nM
Structure (SMILES): CNC(=O)c1cnc(N)c2c(-c3ccc(NC(=O)Nc4cccc(C)c4)cc3)csc12 [Example 2, 4-amino-N-methyl-3-(4-{[(3-methylphenyl)carbamoyl]amino}phenyl)thieno[3,2-c]pyridine-7-carboxamide]
